Test results as given in patent publication US20240342292A1, “Compounds for the Degradation of EGFR Kinase” (BeiGene Switzerland GmbH, priority 2021, published 2024).

How the values were obtained:
[1] = system: Del19/T790M/C797S EGFR; test: EGFR degradation HTRF assay in H1975-clone #28 (DTC) cells; assay type: cell-based; conditions: H1975 # 28 DTC (Del19/T790M/C797S), 16h treatment; for DC50: HTRF; for Dmax (%): maximum percentage of degradation
Description: (§1) H1975-clone #28(Del19/T790M/C797S, or abbr: DTC), H1975-clone #23(Del19/C797S, or abbr: DC), H1975-clone #25(L858R/T790M/C797S, or abbr: LTC) and H1975-clone #8 (L858R/C797S, or abbr: LC). EGFR-Del19:T790M/C797S, EGFR-Del19/C797S, EGFR-L858R/T790M/C797S and EGFR-L858R/C797S were stably expressed in H1975 cell lines by lentivirus-mediated over-expression, respectively. The EGFR over-expressed cells then underwent knockout, in which the EGFR targeting sgRNA was designed to only target the endogenous EGFR copies and preserve the exogenous EGFR copies. Followed by the knockout, the edited H1975 cells were seeded in 96 well plates at the concentration of […], cultured for about 2 weeks to allow single clones formation. The formed clones were screened by DNA sequencing and whole exon sequencing analysis for the desired edition. H1975-clone #28, H1975-clone #23, H1975-clone #25 and H1975-clone #8 were finally confirmed as homozygous Del19/T790M/C797S EGFR, Dell9/C797S EGFR, L858R/T790M/C797S EGFR and L858R/C797S EGFR clones, respectively.
(§2) H1975-#25, H1975-#28, H1975-#23 and H1975-#8 cells are treated with compounds diluted in 0.2% DMSO cell culture medium on day 2, incubate for 16h, 37° C., 5% CO2. the final concentration of compounds in all assay is start with 10 uM, 5-fold dilution, total 8 doses were included.
(§3) After 16h treatment, add HTRF lysis buffer to each well; seal the plate and incubate 1 hour at room temperature on a plate shaker; Once the cells are lysed, 16 μL of cell lysate are transferred to a PE 384-well HTRF detection plate; 4 μL of pre-mixed HTRF antibodies are added to each well; Cover the plate with a plate sealer, spin 1000 rpm for 1 min, Incubate overnight at room temperature; Read on BMG PheraStar with HTRF protocol (337 nm-665 nm-620 nm).
(§4) The IC50 (DC50) value of a compound can be obtained by fitting the following equation
(§5) Y=Bottom+(TOP−Bottom)/(1+((IC50/X)^hillslope))
(§6) Wherein, X and Y are known values, and IC50, Hillslope, Top and Bottom are the parameters obtained by fitting with software. Y is the inhibition percentage (calculated from the equation), X is the concentration of the compound: IC50 is the concentration of the compound when the 50% inhibition is reached. The smaller the IC50 value is, the stronger the inhibitory ability of the compound is. Vice versa, the higher the IC50 value is, the weaker the ability the inhibitory ability of the compound is: Hillslope represents the slope of the fitted curve, generally around 1*; Bottom represents the minimum value of the curve obtained by data fitting, which is generally 0%±20%; Top represents the maximum value of the curve obtained by data fitting, which is generally 100%±20%. The experimental data were fitted by calculating and analyzing with Dotmatics data analysis software.

[2] = biological target: T1, L858R/T790M/C797S EGFR (Homo sapiens, UniProt P00533, C797S/L858R/T790M); test: EGFR degradation HTRF assay in H1975-clone #25 (LTC) cells; assay type: cell-based; conditions: 16h treatment; for DC50: H1975 # 25-LTC (L858R/T790M/C797S), HTRF; for Dmax: NCI-H1975, H1975 # 25-LTC (L858R/T790M/C797S), maximum percentage of degradation
T1 construct: expressed in transfected cells; host or cells: H1975 clone #25 (lentiviral over-expression, endogenous EGFR knocked out by sgRNA)
T1 sequence (P00533 25-1210 T790M/C797S/L858R): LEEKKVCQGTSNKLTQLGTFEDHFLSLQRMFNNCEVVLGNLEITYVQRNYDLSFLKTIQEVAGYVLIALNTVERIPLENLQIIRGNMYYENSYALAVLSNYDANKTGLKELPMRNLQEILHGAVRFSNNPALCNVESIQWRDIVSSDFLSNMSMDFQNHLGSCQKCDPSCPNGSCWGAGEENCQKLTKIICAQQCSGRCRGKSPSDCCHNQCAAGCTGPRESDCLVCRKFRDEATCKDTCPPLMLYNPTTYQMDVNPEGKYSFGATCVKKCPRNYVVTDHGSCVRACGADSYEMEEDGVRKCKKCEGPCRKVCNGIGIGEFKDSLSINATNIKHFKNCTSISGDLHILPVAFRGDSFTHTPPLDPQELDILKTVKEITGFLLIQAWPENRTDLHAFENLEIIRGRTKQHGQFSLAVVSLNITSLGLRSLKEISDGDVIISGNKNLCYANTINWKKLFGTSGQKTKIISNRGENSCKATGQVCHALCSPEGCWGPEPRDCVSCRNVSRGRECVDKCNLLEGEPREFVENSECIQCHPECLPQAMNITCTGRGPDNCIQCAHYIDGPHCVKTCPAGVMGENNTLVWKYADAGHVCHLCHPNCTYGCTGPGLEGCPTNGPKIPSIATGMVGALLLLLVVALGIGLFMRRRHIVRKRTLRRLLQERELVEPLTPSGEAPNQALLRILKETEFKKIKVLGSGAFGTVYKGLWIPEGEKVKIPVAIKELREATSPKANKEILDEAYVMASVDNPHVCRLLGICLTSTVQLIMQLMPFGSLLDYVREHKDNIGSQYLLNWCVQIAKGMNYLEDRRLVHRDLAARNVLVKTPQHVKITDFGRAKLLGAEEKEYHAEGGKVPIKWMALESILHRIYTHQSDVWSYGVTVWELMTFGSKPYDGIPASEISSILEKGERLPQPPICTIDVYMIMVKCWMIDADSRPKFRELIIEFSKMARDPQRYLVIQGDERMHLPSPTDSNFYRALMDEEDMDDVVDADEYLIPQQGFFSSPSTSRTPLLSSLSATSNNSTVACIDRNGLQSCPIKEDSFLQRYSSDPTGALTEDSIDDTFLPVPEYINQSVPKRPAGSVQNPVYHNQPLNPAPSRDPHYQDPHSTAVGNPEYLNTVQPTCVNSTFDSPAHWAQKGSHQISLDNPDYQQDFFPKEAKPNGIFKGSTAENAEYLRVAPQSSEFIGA
Description: as §1, §2, §3, §4, §5, §6

Structure (SMILES) | DC50 [1] [nM] | Dmax (%) [1] [%] | DC50 [2] [nM] | Dmax [2] [%]
Cc1cc2cc(n1)-c1cnn(C)c1OCCC[C@@H](C)CN1/C(=N/C2=O)Nc2ccc(CN3CCC(N4CCN(C5CN(c6cc(F)c([C@H]7CCC(=O)NC7=O)c(F)c6)C5)CC4)CC3)cc21 [Example 18, (R)-3-(2,6-difluoro-4-(3-(4-(1-(((R,E)-1^1,2^6,7-trimethyl-3-oxo-5^2,5^3-dihydro-1^1H,5^1H-11-oxa-4-aza-5(2,1)-benzo[d]imidazola-2(2,4)-pyridina-1(4,5)-pyrazolacycloundecaphane-5^6-yl)methyl)piperidin-4-yl)piperazin-1-yl)azetidin-1-yl)phenyl)piperidine-2,6-dione] | 2.1 | 75.8 | 4.4 | 87.4
Cc1cc2cc(n1)-c1cnn(C)c1OCCC[C@@H](C)CN1/C(=N/C2=O)Nc2ccc(C(=O)N[C@H]3CCN(CCc4cc(F)c([C@H]5CCC(=O)NC5=O)c(F)c4)C[C@H]3F)cc21 [Example 343, (R,E)-N—((3R,4S)-1-(4-((R)-2,6-dioxopiperidin-3-yl)-3,5-difluorophenethyl)-3-fluoropiperidin-4-yl)-1^1,2^6,7-trimethyl-3-oxo-5^2,5^3-dihydro-1^1H,5^1H-11-oxa-4-aza-5(2,1)-benzo[d]imidazola-2(2,4)-pyridina-1(4,5)-pyrazolacycloundecaphane-5^6-carboxamide] | 0.609 | 76.11 | 0.599 | 90.5
CO[C@@H]1CN(CCc2cc(F)c([C@H]3CCC(=O)NC3=O)c(F)c2)CC[C@@H]1N(C)C(=O)c1ccc2c(c1)N1C[C@H](C)CCCOc3c(cnn3C)-c3cc(cc(C)n3)C(=O)/N=C/1N2 [Example 252, (R,E)-N—((3R,4S)-1-(4-((R)-2,6-dioxopiperidin-3-yl)-3,5-difluorophenethyl)-3-methoxypiperidin-4-yl)-N,1^1,2^6,7-tetramethyl-3-oxo-5^2,5^3-dihydro-1^1H,5^1H-11-oxa-4-aza-5(2,1)-benzo[d]imidazola-2(2,4) -pyridina-1(4,5)-pyrazolacycloundecaphane-5^4-carboxamide] | 0.606 | 77.32 | 0.584 | 92.4
Cc1cc2cc(n1)-c1cnn(C)c1OCCC[C@@H](C)CN1/C(=N/C2=O)Nc2ccc(CN3CC4(C3)CN(C(=O)[C@H]3CN(c5cc(F)c([C@H]6CCC(=O)NC6=O)c(F)c5)CC3(C)C)C4)cc21 [Example 80, (R)-3-(4-((R)-3,3-dimethyl-4-(6-(((R,E)-1^1,2^6,7-trimethyl-3-oxo-5^2,5^3-dihydro-1^1H,5^1H-11-oxa-4-aza-5(2,1)-benzo[d]imidazola-2(2,4)-pyridina-1(4,5)-pyrazolacycloundecaphane-5^6-yl)methyl)-2,6-diazaspiro[3.3]heptane-2-carbonyl)pyrrolidin-1-yl)-2,6-difluorophenyl)piperidine-2,6-dione] | 0.8 | 87.0 | 0.8 | 87.5
Cc1cc2cc(n1)-c1cnn(C)c1OCCC[C@@H](C)CN1/C(=N/C2=O)Nc2ccc(C(=O)N(C)[C@H]3CCN(C4CN(c5cc(F)c([C@H]6CCC(=O)NC6=O)c(F)c5)C4)CC3(F)F)cc21 [Example 359, (R,E)-N—((S)-1-(1-(4-((R)-2,6-dioxopiperidin-3-yl)-3,5-difluorophenyl)azetidin-3-yl)-3,3-difluoropiperidin-4-yl)-N,1^1,2^6,7-tetramethyl-3-oxo-5^2,5^3-dihydro-1^1H,5^1H-11-oxa-4-aza-5(2,1)-benzo[d]imidazola-2(2,4)-pyridina-1(4,5)-pyrazolacycloundecaphane-5^6-carboxamide] | 0.751 | 83.57 | 0.841 | 87.1
Cc1cc2cc(n1)-c1cnn(C)c1OCCC[C@@H](C)CN1/C(=N/C2=O)Nc2ccc(C3CCN(CCc4cc(F)c([C@H]5CCC(=O)NC5=O)c(F)c4)CC3)cc21 [Example 330, (R)-3-(2,6-difluoro-4-(2-(4-((R,E)-1^1,2^6,7-trimethyl-3-oxo-5^2,5^3-dihydro-1^1H,5^1H-11-oxa-4-aza-5(2,1)-benzo[d]imidazola-2(2,4)-pyridina-1(4,5)-pyrazolacycloundecaphane-5^6-yl)piperidin-1-yl)ethyl)phenyl)piperidine-2,6-dione] | 0.633 | 66.1 | 0.972 | 87.1
COC[C@H]1CN(C(=O)[C@@H]2CCN(c3cc(F)c([C@H]4CCC(=O)NC4=O)c(F)c3)C2)CCN1Cc1ccc2c(c1)N1C[C@H](C)CCCOc3c(cnn3C)-c3cc(cc(C)n3)C(=O)/N=C/1N2 [Example 194, (R)-3-(2,6-difluoro-4-((R)-3-((R)-3-(methoxymethyl)-4-(((R,E)-1^1,2^6,7-trimethyl-3-oxo-5^2,5^3-dihydro-1^1H,5^1H-11-oxa-4-aza-5(2,1)-benzo[d]imidazola-2(2,4)-pyridina-1(4,5)-pyrazolacycloundecaphane-5′-yl)methyl)piperazine-1-carbonyl)pyrrolidin-1-yl)phenyl)piperidine-2,6-dione] | 0.836 | 79.44 | 1.18 | 84.4
Cc1cc2cc(n1)-c1cnn(C)c1OCCC[C@@H](C)CN1/C(=N/C2=O)Nc2ccc(C(=O)N(C)[C@@H]3CCN(CCc4cc(F)c([C@H]5CCC(=O)NC5=O)c(F)c4)C[C@H]3F)cc21 [Example 346, (R,E)-N—((3R,4R)-1-(4-((R)-2,6-dioxopiperidin-3-yl)-3,5-difluorophenethyl)-3-fluoropiperidin-4-yl)-N,1^1,2^6,7-tetramethyl-3-oxo-5^2,5^3-dihydro-1^1H,5^1H-11-oxa-4-aza-5(2,1)-benzo[d]imidazola-2(2,4)-pyridina-1(4,5)-pyrazolacycloundecaphane-5^6-carboxamide] | 0.411 | 78.78 | 0.526 | 84.8
Cc1cc2cc(n1)-c1cnn(C)c1OCCC[C@@H](C)CN1/C(=N/C2=O)Nc2ccc(C(=O)N(C)C3CCN(CC4CCN(c5cc(F)c([C@H]6CCC(=O)NC6=O)c(F)c5)CC4)CC3)cc21 [Example 287, (R,E)-N-(1-((1-(4-((R)-2,6-dioxopiperidin-3-yl)-3,5-difluorophenyl)piperidin-4-yl)methyl)piperidin-4-yl)-N,1^1,2^6,7-tetramethyl-3-oxo-5^2,5^3-dihydro-1^1H,5^1H-11-oxa-4-aza-5(2,1)-benzo[d]imidazola-2(2.4)-pyridina-1(4,5)-pyrazolacycloundecaphane-5^6-carboxamide] | 0.918 | 88.53 | 0.581 | 93.5
Cc1cc2cc(n1)-c1cnn(C)c1OCCC[C@@H](C)CN1/C(=N/C2=O)Nc2ccc(N3CCN(CCN(C)c4cc(F)c([C@H]5CCC(=O)NC5=O)c(F)c4)CC3)cc21 [Example 407, (R)-3-(2,6-difluoro-4-(methyl(2-(4-((R,E)-1^1,2^6,7-trimethyl-3-oxo-5^2,5^3-dihydro-1^1H,5^1H-11-oxa-4-aza-5(2,1)-benzo[d]imidazola-2(2,4)-pyridina-1(4,5)-pyrazolacycloundecaphane-5^6-yl)piperazin-1-yl)ethyl)amino)phenyl)piperidine-2,6-dione] | 2.09 | 78.49 | 2.29 | 87.9
